{"source": "ChEMBL document CHEMBL1135738", "about": "“Synthesis of novel cationic lipids: effect of structural modification on the efficiency of gene transfer” (J Med Chem, 2002)", "tested_on": "V79", "test": "Cytotoxic effect of compound was measured in lipid V79cell formulation.", "format": "functional, cell-based", "settings": "Cricetulus griseus", "note": "pIC50: −log10 of the molar value."}
{"smiles": "CCCCCCCCCCCCOCC(CN)OCCCCCCCCCCCC", "note": "(stereo not given)", "values": [{"measurement": "pIC50", "result": 4.12}]}
{"smiles": "CCCCCCCCCCCCCCCCCCOCC(CN)OCCCCCCCCCCCC", "note": "(stereo not given)", "values": [{"measurement": "pIC50", "result": 4.12}]}
{"smiles": "CCCCCCCCCCCCCCCCCCOCC(CN)OCCCCCCCCCCCCCCCCCC", "note": "(stereo not given)", "values": [{"measurement": "pIC50", "result": 4.17}]}
{"smiles": "CCCCCCCCCCCCOCC(CNC(=O)[C@@H](N)CCCCN)OCCCCCCCCCCCC", "note": "(stereo not given in full)", "values": [{"measurement": "pIC50", "result": 4.47}]}
{"smiles": "CCCCCCCCCCCCOCC(CNC(=O)[C@@H](N)CCCN=C(N)N)OCCCCCCCCCCCC", "note": "(stereo not given in full)", "values": [{"measurement": "pIC50", "result": 4.70}]}
